Test results from patent publication US11179390B2, “Subcutaneous administration of a P2Y12 receptor antagonist” (Idorsia Pharmaceuticals Ltd, priority 2017, dated 2021).
“And” between values parts separate entries of the source, which are not always exact repeats. Equal entries are not always repeated. Structures can show the parent of a compound that is named as a salt.

Tests used:
[1] = test system: ADP-induced AF488-Fibrinogen binding on mouse platelets; experiment: AF488-Fibrinogen binding assay on whole blood after subcutaneous administration of P2Y12 receptor antagonists; type: in vivo, mouse (male Balb/c)
Description: In-Vivo Measurements of Time Dependent Platelet Inhibition after Subcutaneous Administration of P2Y12 Receptor Antagonists:
Male Balb/c mice were purchased from Charles River laboratories (Sulzfeld, Germany). All animals were maintained under identical conditions in accordance with the guidelines of the Basel-Landschaft cantonal veterinary office. Husbandry was accomplished in professional animal housing facilities, which provided group-cages, standard diet/water ad libitum, and standard illumination and climate conditions. The technical assistants performed at least one inspection per day. Sufficient time was provided for the animals to be accustomed to the experimental environment. Stress reduction was provided also by enrichment of cages, and providing the possibility to retire to dark housings (taking advantage of the color blindness of albino mice in the red range of the light spectrum). Inside the red housing the animals have the impression of being in the dark, while this housing remains visible to normal human vision.
Compound 1 hydrochloride, 0.2 mg/kg (respectively 5 mL/kg)
Elinogrel, 30 mg/kg (respectively 5 mL/kg)
Cangrelor, 0.2 mg/kg (respectively 5 mL/kg)
After an acclimatization period of at least 7 days, mice were anesthetized with Isoflurane (2-5%). The animals were then placed on a thermostatically-controlled heating table to maintain body temperature at 36-38° C. A polyurethane catheter (BTPU-027) was inserted into the right jugular vein and advanced into the vena cava for infusion of Heparin and to collect blood. […] Therefore Heparin (4000 U/kg/2.5 mL) was intravenously injected to prevent blood from coagulation.
Two minutes after the injection of Heparin, 60 μL of whole blood was collected via the vena cava catheter (baseline). […] 10, 20, 30, 40 and 60 minutes after the subcutaneous injection of the test compounds, 60 μL of whole blood were collected via the vena cava catheter for the fibrinogen binding assay.
(§1) This assay is particularly well adapted for reliable studies of the effect of P2Y12 antagonists on mouse platelets under in vitro and in vivo conditions. The assay allows to measure ADP-induced AF488-Fibrinogen binding on mouse platelets in only 6 μL whole blood and without washing steps.
(§2) Next, 10 μL of AF488-Fibrinogen (to give 0.5 mg/mL final concentration) were added followed by incubation of 5 minutes. To induce AF488-Fibrinogen binding, the platelets were then incubated with 10 μL ADP (to give 20 μM final concentration) for 5 minutes. In addition, an incubation with a platelet specific Allophycocyanin (APC) anti-Mouse CD61 (integrin beta 3) antibody (clone 2C9.G2) was performed for 10 minutes. The platelets were then fixed by addition of 34 μL cold paraformaldehyde solution (to give 0.1% final concentration) and stored at 4° C. for about 20 minutes. The samples were finally diluted with 1.8 mL cold PBS and put on hold at 4° C. for at least 2 hours, time necessary for gently red blood cell lysis, before measuring by flow cytometry.
Flow cytometry was performed using a FACSCanto II instrument (BD Bioscience). The setting of fluorescence compensation was not required due to the use of two different lasers.
Platelets were first detected using the platelet specific fluorescence signal of APC-CD61 (APC-settings for fluorescence emission peak at 660 nm). The platelet population was then gated using forward-scatter (FSC) and side-scatter (SSC) and their FITC-labeled Fibrinogen signal (FITC-settings for fluorescence emission peak at 525 nm) was quantitated as Mean Fluorescence Intensity (MFI) of 5000 platelets. For each sample, the MFI from corresponding nonspecific sample was subtracted.

[2] = test system: ADP-induced AF488-Fibrinogen binding on platelets; experiment: In vitro inhibition of ADP-induced AF488-Fibrinogen binding (nonspecific signal control); type: cell-based; conditions: Mus musculus, Platelet, 0.25 h; 2 μM final concentration in diluted blood, 15 minutes at RT, 20 μM ADP; prior experiments
Protocol: as §1
as §2, with “The blood was first incubated with 4 μL vehicle or 4 μL Compound 1 hydrochloride (to give 2 μM final concentration in diluted blood) for 15 minutes at RT. This concentration of Compound 1 hydrochloride was determined in prior experiments to inhibit 100% of ADP-induced AF488-Fibrinogen binding on platelets and represents the nonspecific signal. Next,” for “Next,”

CNc1cc2[nH]c(=O)n(-c3ccc(NC(=O)NS(=O)(=O)c4ccc(Cl)s4)cc3)c(=O)c2cc1F [Elinogrel]
Mean Fluorescence Intensities of AF488-Fibrinogen binding to platelets ([1]; 30 mg/kg s.c., 10 min after injection): 4403 MFI and 4712 MFI and 3842 MFI and 3840 MFI
Mean Fluorescence Intensities of AF488-Fibrinogen binding to platelets ([1]; 30 mg/kg s.c., 20 min after injection): 2374 MFI and 3847 MFI and 2177 MFI and 4078 MFI
Mean Fluorescence Intensities of AF488-Fibrinogen binding to platelets ([1]; 30 mg/kg s.c., 40 min after injection): 1644 MFI and 1768 MFI and 1652 MFI and 2619 MFI
Mean Fluorescence Intensities of AF488-Fibrinogen binding to platelets ([1]; 30 mg/kg s.c., 60 min after injection): 2034 MFI and 1503 MFI and 1515 MFI and 2191 MFI
Mean Fluorescence Intensities of AF488-Fibrinogen binding to platelets ([1]; 30 mg/kg s.c., time 0 min (baseline, before injection)): 8124 MFI and 5370 MFI and 7045 MFI and 7097 MFI

CCCCOC(=O)N1CCN(C(=O)[C@H](CP(=O)(O)O)NC(=O)c2cc(N3CC[C@H](OC)C3)nc(-c3ccccc3)n2)CC1 [Compound 1 hydrochloride, ((R)-3-(4-(butoxycarbonyl)piperazin-1-yl)-2-(6-((S)-3-methoxypyrrolidin-1-yl)-2-phenylpyrimidine-4-carboxamido)-3-oxopropyl)phosphonic acid hydrochloride]
inhibition at 2 µM [2]: 100%

CSCCNc1nc(SCCC(F)(F)F)nc2c1ncn2[C@@H]1O[C@H](COP(=O)(O)OP(=O)(O)C(Cl)(Cl)P(=O)(O)O)[C@@H](O)[C@H]1O [Cangrelor]
Mean Fluorescence Intensities of AF488-Fibrinogen binding to platelets ([1]; 0.2 mg/kg s.c., 10 min after injection): 1596 MFI and 1628 MFI and 2550 MFI
Mean Fluorescence Intensities of AF488-Fibrinogen binding to platelets ([1]; 0.2 mg/kg s.c., 20 min after injection): 713 MFI and 1364 MFI and 1012 MFI
Mean Fluorescence Intensities of AF488-Fibrinogen binding to platelets ([1]; 0.2 mg/kg s.c., 40 min after injection): 765 MFI and 732 MFI and 921 MFI
Mean Fluorescence Intensities of AF488-Fibrinogen binding to platelets ([1]; 0.2 mg/kg s.c., 60 min after injection): 1048 MFI and 682 MFI and 961 MFI
Mean Fluorescence Intensities of AF488-Fibrinogen binding to platelets ([1]; 0.2 mg/kg s.c., time 0 min (baseline, before injection)): 6200 MFI and 7453 MFI and 5476 MFI
